Source: patent US20040086901A1, “Database for analyzing gene function and method of analyzing gene function by dspa” (priority 2000, published 2004)

What was measured:
Type in all cases: cell-based, mouse
[1] = test system: NIH3T3 cells overexpressing PDGF-R; test: MTT cell viability, PDGF-R overexpressing cells vs parental line; details: PDGF-R high-expressing cells / parental cell line, 3 to 4 days
Procedure: (§1) With regard to the function-known genes, the genes shown in the left column of Table 2 were used. With regard to the drugs, those shown in Table 1 were dissolved in DMSO to an extent of 100-fold of the maximum concentration for the search of the drugs and used. With regard to the cells, incubated NIH3T3 or ras-NIH3T3 cells were used.
(§2) Full-length cDNA of each function-known genes was incorporated into an expression vector (pRc-CMV, etc.) and transfected into NIH3T3 cells by a common method. Transformed cells were isolated using the resistance to G-418 as an index and the expression of the transfected gene in each cell was investigated by Western blotting method to select a highly expressing line.
(§3) Cell viabilities were measured according to the following procedures.
(§4) 1) From the 2nd to the 11th rows of a 96-well plate were filled with DMEM (50 μl). The 12th row was filled with 100 μl of DMEM.
(§5) 2) The 1st row was filled with 98 μl of DMEM.
(§6) 3) Drugs (2 μl each) were added into the 1st row.
(§7) 4) Continuous double-dilution was conducted from the 1st to the 9th rows. Fifty μl were taken out from the 9th row and discarded. The plate was preserved in a CO2 incubator.
(§8) 5) Cells (each high-expressing cells and the parental cell line) were detached from the medium using a trypsin solution, suspended in 10% CS-DMEM and transferred to a test tube and cell numbers (cell/ml) were counted.
(§9) 6) The cells were diluted to a concentration of 1×10^5 cells/ml, and 50 μl of the cell suspension were added to the 1st to the 11th rows of the plate followed by gently stirring.
(§10) 7) The plate was transferred to the CO2 incubator and incubated for 3 to 4 days.
(§11) 8) MTT (5 mg/ml in PBS) (10 μl) was added to the 1st to the 12th rows of the plate and incubated in the CO2 incubator at 37° C. for 4 hours.
(§12) 9) A reaction stop solution (0.04N HCl in isopropanol) (150 μl) was added followed by mixing well and being allowed to stand at room temperature for about 2 hours.
(§13) 10) Coloration of formazan which was a metabolite of the MTT dye was measured using a microplate reader. The measurement wavelength was 574 nm and the reference wavelength was 655 nm. The 10th and the 11th rows of the plate were 100% controls and the 12th row was a 0% control.
(§14) As an index for the sensitivity of highly gene-expressing cells and the parental cell line to various drugs, each of the IC40 values thereof was specified and ratios of the IC40 values were calculated. FIG. 2 and FIG. 3 are the examples where ratios of IC40 values were calculated from a curve showing the dependency on the concentration of the chemical versus the viability. After that, logarithmic values of ratios of IC40 values were calculated from each gene.

[2] = test system: NIH3T3 cells overexpressing coup; test: MTT cell viability, coup overexpressing cells vs parental line; details: coup high-expressing cells / parental cell line, 3 to 4 days
Procedure: as §1, §2, §3, §4, §5, §6, §7, §8, §9, §10, §11, §12, §13, §14

[3] = test system: NIH3T3 cells overexpressing p53(wt); test: MTT cell viability, p53(wt) overexpressing cells vs parental line; details: p53(wt) high-expressing cells / parental cell line, 3 to 4 days
Procedure: as §1, §2, §3, §4, §5, §6, §7, §8, §9, §10, §11, §12, §13
(§15) As an index for the sensitivity of highly gene-expressing cells and the parental cell line to various drugs, each of the IC40 values thereof was specified and ratios of the IC40 values were calculated. […] After that, logarithmic values of ratios of IC40 values were calculated from each gene.

[4] = test system: NIH3T3 cells overexpressing Regucalcin; test: MTT cell viability, Regucalcin overexpressing cells vs parental line; details: Regucalcin high-expressing cells / parental cell line, 3 to 4 days
Procedure: as §1, §2, §3, §4, §5, §6, §7, §8, §9, §10, §11, §12, §13, §14

[5] = test system: NIH3T3 cells overexpressing PKCepsilon-KN; test: MTT cell viability, PKCepsilon-KN overexpressing cells vs parental line; details: 3 to 4 days
Procedure: as §1, §2, §3, §4, §5, §6, §7, §8, §9, §10, §11, §12, §13, §15

[6] = test system: NIH3T3 cells overexpressing TK; test: MTT cell viability, TK overexpressing cells vs parental line; details: TK high-expressing cells / parental cell line, 3 to 4 days
Procedure: as §1, §2, §3, §4, §5, §6, §7, §8, §9, §10, §11, §12, §13, §14

[7] = test system: NIH3T3 cells overexpressing p33/ING1; test: MTT cell viability, p33/ING1 overexpressing cells vs parental line; details: p33/ING1 high-expressing cells / parental cell line, 3 to 4 days
Procedure: as §1, §2, §3, §4, §5, §6, §7, §8, §9, §10, §11, §12, §13, §14

[8] = test system: NIH3T3 cells overexpressing HNF4; test: MTT cell viability, HNF4 overexpressing cells vs parental line; details: HNF4 high-expressing cells / parental cell line, 3 to 4 days
Procedure: as §1, §2, §3, §4, §5, §6, §7, §8, §9, §10, §11, §12, §13, §15

[9] = test system: NIH3T3 cells overexpressing erbB2; test: MTT cell viability, erbB2 overexpressing cells vs parental line; details: erbB2 high-expressing cells / parental cell line, 3 to 4 days
Procedure: as §1, §2, §3, §4, §5, §6, §7, §8, §9, §10, §11, §12, §13, §14

[10] = test system: NIH3T3 cells overexpressing Bax; test: MTT cell viability, Bax overexpressing cells vs parental line; details: 3 to 4 days
Procedure: as §1, §2, §3, §4, §5, §6, §7, §8, §9, §10, §11, §12, §13, §15

[11] = test system: NIH3T3 cells overexpressing cAMP-PK-CS; test: MTT cell viability, cAMP-PK-CS overexpressing cells vs parental line; details: cAMP-PK-CS high-expressing cells / parental cell line, 3 to 4 days
Procedure: as §1, §2, §3, §4, §5, §6, §7, §8, §9, §10, §11, §12, §13, §15

[12] = test system: NIH3T3 cells overexpressing v-src; test: MTT cell viability, v-src overexpressing cells vs parental line; details: v-src high-expressing cells / parental cell line, 3 to 4 days
Procedure: as §1, §2, §3, §4, §5, §6, §7, §8, §9, §10, §11, §12, §13, §14

[13] = test system: NIH3T3 cells overexpressing caspase-1; test: MTT cell viability, caspase-1 overexpressing cells vs parental line; details: caspase-1 high-expressing cells / parental cell line, 3 to 4 days
Procedure: as §1, §2, §3, §4, §5, §6, §7, §8, §9, §10, §11, §12, §13, §15

[14] = test system: NIH3T3 cells overexpressing RhoA; test: MTT cell viability, RhoA overexpressing cells vs parental line; details: RhoA high-expressing cells / parental cell line, 3 to 4 days
Procedure: as §1, §2, §3, §4, §5, §6, §7, §8, §9, §10, §11, §12, §13, §14

[15] = test system: NIH3T3 cells overexpressing caspase-2; test: MTT cell viability, caspase-2 overexpressing cells vs parental line; details: caspase-2 high-expressing cells / parental cell line, 3 to 4 days
Procedure: as §1, §2, §3, §4, §5, §6, §7, §8, §9, §10, §11, §12, §13, §14

[16] = test system: NIH3T3 cells overexpressing CaMKIIa; test: MTT cell viability, CaMKIIa overexpressing cells vs parental line; details: CaMKIIa high-expressing cells / parental cell line, 3 to 4 days
Procedure: as §1, §2, §3, §4, §5, §6, §7, §8, §9, §10, §11, §12, §13, §15

[17] = test system: NIH3T3 cells overexpressing T.Tn; test: MTT cell viability, T.Tn overexpressing cells vs parental line; details: T.Tn high-expressing cells / parental cell line, 3 to 4 days
Procedure: as §1, §2, §3, §4, §5, §6, §7, §8, §9, §10, §11, §12, §13, §15

[18] = test system: NIH3T3 cells overexpressing cystatin alpha; test: MTT cell viability, cystatin alpha overexpressing cells vs parental line; details: cystatin alpha high-expressing cells / parental cell line, 3 to 4 days
Procedure: as §1, §2, §3, §4, §5, §6, §7, §8, §9, §10, §11, §12, §13, §14

[19] = PKCepsilon-KN (first of two lines) high-expressing cells / parental cell line
[20] = PKCepsilon-KN (second of two lines) high-expressing cells / parental cell line
[21] = Bax (first of two Bax lines) high-expressing cells / parental cell line
[22] = Bax (second of two Bax lines) high-expressing cells / parental cell line

| SMILES | logarithmic value of ratio of IC40 values [1] | logarithmic value of ratio of IC40 values [2] | logarithmic value of ratio of IC40 values [3] | logarithmic value of ratio of IC40 values [4] | logarithmic value of ratio of IC40 values [5, 19] | logarithmic value of ratio of IC40 values [5, 20] | logarithmic value of ratio of IC40 values [6] | logarithmic value of ratio of IC40 values [7] | logarithmic value of ratio of IC40 values [8] | logarithmic value of ratio of IC40 values [9] | logarithmic value of ratio of IC40 values [10, 21] | logarithmic value of ratio of IC40 values [10, 22] | logarithmic value of ratio of IC40 values [11] | logarithmic value of ratio of IC40 values [12] | logarithmic value of ratio of IC40 values [13] | logarithmic value of ratio of IC40 values [14] | logarithmic value of ratio of IC40 values [15] | logarithmic value of ratio of IC40 values [16] | logarithmic value of ratio of IC40 values [17] | logarithmic value of ratio of IC40 values [18] |
| --- | --- | --- | --- | --- | --- | --- | --- | --- | --- | --- | --- | --- | --- | --- | --- | --- | --- | --- | --- | --- |
| COC(=O)[C@@]1(O)C[C@H]2O[C@]1(C)n1c3ccccc3c3c4c(c5c6ccccc6n2c5c31)C(=O)NC4 [K252a] | 0.10 | 0.00 | 0.05 | −0.34 | 0.00 | −0.09 | 0.23 | 0.28 | −0.22 | 0.15 | −0.11 | 0.60 | −0.04 | −0.22 | 0.04 | 0.10 | 0.37 | 0.04 | 0.00 | −0.10 |
| C=C[C@@]1(C)CC(=O)[C@]2(O)[C@@]3(C)[C@@H](O)CCC(C)(C)[C@@H]3[C@H](O)[C@H](OC(C)=O)[C@@]2(C)O1 [Forskolin, forskolin] | 0.16 | 0.78 | 0.98 | −0.10 | 0.00 | 0.00 | 0.56 | 0.63 | 0.00 | 0.28 | 0.00 | −0.26 | 0.51 | −0.46 | 0.34 | 0.47 | −0.34 | 0.00 | 0.53 | 0.72 |
| CN[C@@H]1C[C@H]2O[C@@](C)([C@@H]1OC)n1c3ccccc3c3c4c(c5c6ccccc6n2c5c31)C(=O)NC4 [Staurosporine] | 0.24 | 0.08 | 0.07 | −0.09 | – | – | 0.46 | 0.62 | 0.04 | 0.04 | −0.22 | – | −0.12 | −0.05 | 0.22 | 0.15 | 0.18 | 0.12 | – | 0.30 |
| O=CN/C=C/c1cc(O)ccc1O [Erbstatin, erbstatin] | – | 0.33 | 0.17 | 0.00 | −0.12 | 0.00 | 0.05 | 0.11 | 2.00 | −0.05 | 0.27 | 0.04 | 0.05 | −0.05 | −0.22 | 0.14 | −0.07 | 0.14 | 0.48 | 0.08 |
| COC[C@H]1OC(=O)c2coc3c2[C@@]1(C)C1=C(C3=O)[C@@H]2CCC(=O)[C@@]2(C)C[C@H]1OC(C)=O [Wortmannin, wortmannin] | 0.00 | 0.10 | 0.40 | −0.28 | −0.15 | −0.28 | 0.00 | 0.00 | 0.14 | 0.16 | 0.14 | 0.10 | −0.07 | 0.08 | 0.20 | 0.24 | 0.52 | −0.15 | 0.36 | 0.45 |
| O=c1c(-c2ccc(O)cc2)coc2cc(O)cc(O)c12 [Genistein, genistein] | 0.32 | 0.44 | 0.26 | 0.00 | 0.00 | 0.19 | 0.08 | 0.78 | −0.15 | −0.60 | 0.20 | 0.38 | 0.00 | −0.60 | −0.12 | 0.31 | 0.30 | −0.15 | −0.25 | 0.28 |
